Laboratory results reported in patent US20230043678A1, “USE OF 5-METHYLTETRAHYDROFOLATE” (priority 2019, published 2023).

Key:
[1] = system: fetal rat heart; assay: Effect of high-dose folic acid on fetal rat heart, histopathology (Example 8); type: in vivo, SD rats; details: for Development delay / Malformation cases / Malformation rate / Sparse myocardial trabeculae / Ventricular defects/septal defects: fetal rats
Experimental: 28 each of female and male adult healthy SD rats, weighing about 200-250 g, were purchased from SPF (Beijing) biotechnology co., LTD. After all animals were purchased, general physiological indicators, body weight and feeding of the animals were observed. The animals were adaptively fed for one week. […] The animals were fed day and night in natural lighting, and at a room temperature of 18-26° C. and a relative humidity of 40%-70%.
The obtained 16 pregnant mice were randomly divided into 4 groups with 4 rats in each group according to body weight: a normal group, a high-dose folic acid group, a middle-dose folic acid group and a low-dose folic acid group. The high-dose folic acid (36.44 mg/kg) group, the middle-dose folic acid (18.22 mg/kg) group, the low-dose folic acid (9.11 mg/kg) group and a blank control group were separately set. The pregnant mice were intragastrically administrated with a 1 ml/100 g solution. The pregnant mice were given pure water in the normal group. The pregnant mice in the other groups started to be administrated on the 2nd day after grouping once a day for 21 consecutive days. The pregnant mice in each group freely ate and drunk. After the female rats were administrated for 7 days, male and female rats were mated in a cage at a ratio of 1:1 overnight, a vaginal plug was checked the next morning, a day when the vaginal plug was found was regarded as day 0 of pregnancy, the pregnant mice were separately fed and administrated for 21 consecutive days, and a fetus was obtained by cesarean section.
Routine histopathologic paraffin sample preparation, serial section (a thickness of 5 μm) and HE staining were conducted. Sample preparation: routine histopathologic paraffin sample sections were prepared and each sample was 1 paraffin block; and section: each numbered sample had 20 sections. A starting point of mounting was when the paraffin block was sliced, there were ventricular mounting slices and 4 consecutive tissue points were mounted on each glass slide on average. HE staining: there were 20 glass slides for each sample and every other 1 slide was taken for HE staining, a total of 10 slides. Observation and analysis: Leica panoramic image acquisition and comparative analysis were conducted. Fetal rat hearts were dissected and sliced for observation, and the results were as follows.

[2] = system: heart of fetal mice; assay: Effects of folic acid and 5-methyltetrahydrofolate on heart development of fetal/neonatal mice, histology (Example 10); details: mouse, in vivo
Experimental: 75 7-week-old female C57BL/6J mice and 25 8-week-old male C57BL/6J mice were provided by Shanghai Lingchang Biotechnology Co., Ltd. with a certificate number of SCXK (Shanghai) 2018-0003. […] The female mice were randomly divided into 5 groups according to body weight: a solvent control group, a folic acid (151.66 μg/kg) group, a folic acid (303.32 μg/kg) group, a calcium 5-methyltetrahydrofolate (converted to folic acid, 151.66 μg/kg) group and a calcium 5-methyl tetrahydrofolate (converted to folic acid, 303.32 μg/kg) group. 1.1275 unit mass of the calcium 5-methyltetrahydrofolate equaled to 1 unit mass of the folic acid.
15 mice were in each group and numbered by a toe clipping method. The mice were intragastrically administrated once a day on the second day after grouping. One week after the pre-administration, male and female mice were caged at a ratio of […], a vaginal plug was observed every day from the next day, and a day when the vaginal plug was seen was recorded as day 0.5 of pregnancy. After 14 days of caging, the female mice stopped the administration, the male mice were removed, and the pregnant female mice were fed alone until litter.
After the detection, thoracic and abdominal cavities of the mice were dissected, cardiac morphology and beating were observed under a stereoscopic microscope (SMZ168, Motic, Xiamen, Fujian, China), and photographs and video recordings were taken (Motic Image Plus 3.0, Motic, Xiamen, Fujian, China). The mice were sacrificed and the hearts, the livers, the kidneys and the lungs were harvested. The hearts and the livers of the neonatal mice were selected from each group and fixed with 4% paraformaldehyde, the fixed hearts and livers were embedded in paraffin, the embedded hearts and livers were sliced and the slices were stained with H&E. A half of the other tissues were immersed in RNA later for fixation and the other half were directly immersed in liquid nitrogen and frozen for a subsequent experiment.
1-day-old neonatal mice were sacrificed, the hearts were taken and fixed with 4% paraformaldehyde, the fixed hearts were embedded in paraffin, the embedded hearts were sliced, the slices were stained with H&E and pictures were taken under a normal microscope.

[3] = system: congenital heart defects in offspring; details: cited from earlier work
[4] = system: zebrafish embryos; assay: Teratogenic effect of folic acid on zebrafish embryos (Example 3); details: for embryo coverage: 8 hpf
Experimental: Transgenic zebrafish (fli-1:EGFP) were from the Model Animal Research Center of Nanjing University. Adult zebrafish aged less than 1 were used for experiment and fed at a water pH value of 7±0.2, a temperature around 28° C. and a ratio of illumination to darkness of 14 h:10 h, and with Artemia salina eggs twice a day. Three zebrafish, one female, two males, were placed in a spawning box the night before and eggs were collected the next morning. Fish eggs were placed in an embryo culture medium (prepared with 0.2 g/L of sea salt) and cultured at 28° C. […] Dead embryos were cleaned up in time. A phenotype of malformation was observed, the number of all abnormal zebrafish where the malformation was present was recorded and a malformation rate and a rescue rate of each group were calculated. Morphological defects, a heart rate, cardiac morphology and other indicators were observed and evaluated by an SMZ745T inverted stereomicroscope.

[5] = folic acid 9.11 mg/kg intragastric
[6] = folic acid 18.22 mg/kg intragastric
[7] = folic acid 36.44 mg/kg intragastric

For `Nc1nc2ncc(CNc3ccc(C(=O)N[C@@H](CCC(=O)O)C(=O)O)cc3)nc2c(=O)[nH]1` [FA, pteroylglutamic acid], the Development delay [1, 5] was 1, the Malformation cases [1, 5] was 3 and the Malformation rate [1, 5] was 10.7%. For the same compound, the Sparse myocardial trabeculae [1, 5] was 1, the Ventricular defects/septal defects [1, 5] was 3 and the Development delay [1, 6] was 1. For the same compound, the Malformation cases [1, 6] was 4, the Malformation rate [1, 6] was 15.4% and the Sparse myocardial trabeculae [1, 6] was 2. For the same compound, the Ventricular defects/septal defects [1, 6] was 2, the Development delay [1, 7] was 3 and the Malformation cases [1, 7] was 4. It also gave a Malformation rate [1, 7] of 25%, a Sparse myocardial trabeculae [1, 7] of 1 and a Ventricular defects/septal defects [1, 7] of 4. For the same compound, the “litter rate of rats” value ([1]; folic acid, high dose) was “reduce the litter rate under a high dose”, the “ventricular septum disappeared (number of animals)” value ([1]; high-dose folic acid group 36.44 mg/kg) was 1 and the “heart slices (H&E) of 1-day-old neonatal mice” value [2] was “A small block of a heart wall was defective”. The “reduction of risk of CHD” value ([3]; folic acid supplementation, hospital case-control studies in Guangdong, Hubei, Fujian and Shanxi) was 65%, the “lower risk of giving birth to infants with heart defects” value ([3]; women taking folic acid, case-control study, north of the Netherlands) was “approximately 20%” and the embryo coverage ([4]; 2 mM FA) was “covered completely”. The “heart shape and lower intestinal network blood vessels” value ([4]; 2 mM FA, 72 hpf) was “normal heart shape and normal development of lower intestinal network blood vessels”, the “heart shape and lower intestinal network blood vessels” value ([4]; FA 4 mM or above, 72 hpf) was “pericardium edema malformations, atrial and ventricular elongation and developmental disorders of lower intestinal network blood vessels” and the embryo coverage ([4]; FA groups of other concentrations (4-10 mM)) was “not covered completely”. For the same compound, the “survival rate of embryos” value ([4]; all FA groups (2, 4, 6, 8, 10 mM)) was “low survival rate of embryos”, the “body length of embryos” value ([4]; folic acid 8 mM, 72 hpf) was “significantly shortened the body length of the embryos” and the embryo morphology ([4]; folic acid, 24 hpf) was “developmental malformation of heads and tails of the embryos”. For the same compound, the embryonic heart rate ([4]; folic acid, especially at 48 hpf) was “affected an embryonic heart rate”.
